From patent US5906922A, “Delivery of nucleic acids” (Commonwealth Scientific and Industrial Research Organisation, priority 1994, dated 1999)
Where a SMILES comes first, the peptide text is derived from it. The star is where a group is joined. NHC(CH2OLauroyl)3 = CCCCCCCCCCCC(=O)OCC(COC(=O)CCCCCCCCCCC)(COC(=O)CCCCCCCCCCC)N*

What was measured:
[1] = system: Cos 1 cells; assay type: cell-based, African Green Monkey
From the text: Relative levels of cytotoxicity caused by the different agents were compared during the experiment using the dye "Alamar Blue" (Alamar, Sacramento Calif.).
(§1) For experiment "c", a plasmid pPGKlaczNLS encoding β-galactosidase under the control of the mouse PGK promoter (kind gift from G.Hannan) or pSVGAL which utilises the SV40 early promoter (Sleigh, M. J. and Lockett, T. J. (1985). EMBO J. 4:3831-3837),was transfected. This experiment and assay were modified from Feigner et al J. Biol Chem. 269(4) 2550-2561 1994. This protocol allows the simultaneous assessment of 72 different combinations and concentrations of DNA and test agent in a microtitre tray. […] Cytotoxicity was assessed using alamar blue, and a sample graph is shown for experiment a.
(§2) The ratio of [lipid]/[DNA] at which that maximum was achieved is shown. Experiments shown were carried out in Cos 1 cells, as described above. MTS OD is a measure of relative viabilility of the cells exposed to the different agents, a higher value indicates greater cell viability. * These points were taken from a separate experiment and some slight variation between absolute numbers should be expected between experiments.
(§3) The ratio of [lipid]/[DNA] at which that maximum was achieved is shown in brackets for the two different cell types in the following order; (Cos 1) (CHO). Experiments shown were carried out in Cos 1 cells, as described above. Viability was measured with the dye alamar blue . # Denotes compounds tested in a separate experiment. * Viability in this experiment was determined with MTS. OD is a measure of relative viability of the cells exposed to the different agents, and as with alamar blue, a higher value indicates greater cell viability.

[2] = system: Cos 1 cells; assay: Transfection of pSVLCAT, CAT assay, Cos 1; assay type: cell-based, African Green Monkey
Method: To test the transfection properties of the lead compound K3ATP3 (VerafectinA3), whole uncut plasmid carrying the gene encoding CAT (chloramphenicol acetyl transferase) under the control of the SV40 late promoter, pSVLCAT (Cameron, F. H. and Jennings, P. A. (1989) PNAS 86, 9139-9143) was mixed with the test agent and put on Cos 1 cells under various conditions. After 48 hours of culture the level of secreted CAT was assayed from the culture medium.
Solution I: 1 μg Plasmid DNA in 500 μl Dulbeccos Modified Eagles Medium (DME)
Solution II: 0-20 μl VerafectinA3 (2.5 mg/ml 25% DMSO) in 500 μl DME, Vortex
Combine solution I and II, vortex briefly and incubate at room temperature for 10 min.
Add mix to washed cells in 60 mm tissue culture dishes (seeded 0.5×10^6 /dish previous day) for 6 hrs at 37° C., 5% C02. Add 2 ml DME+10% FCS for remainder of 48 hrs. Assay CAT levels in tissue culture medium (Sleigh, M. J. (1986) Anal. Biochem. 156.251-256).
a--Compare VerafectinA3 dissolved in DMSO or ethanol.
b--Compare VerafectinA3 on cells 6 hrs to overnight. VerafectinA3 at 10 mg/ml in 100% solvent was diluted to 2.5 mg/ml with water.
Transfection was carried out as for experiment 1. VerafectinA3 was left in contact with the cells for varying times.
Protocol was the same for the Verafectins as described above. Lipofectamine protocol was according to manufacturers instructions. Cos 1 cells were seeded at 5×10^5 /60 mm dish and adhered overnight in DME with 10% FCS.
Solution A: 0.5 μg pSVLCAT/60 mm dish.
Solution B: Lipofectamine 10 and 15 μl 2 mg/ml (mixed formulation 3:1 with DOPE).
OR; VerafectinA3 and VerafectinG2 20 μl 2 mM (2.8 and 2.3 mg/ml respectively) stock.
OR; VerafectinG2 was also tested with an equimolar amount of DOPE. VerafectinG2 and DOPE were mixed in DDME and vortexed for 30 seconds before use. Solutions A and B were combined before overlaying on washed cells.
The serum free incubation period in the presence of test agents and DNA was 6 hrs, then 1 ml DME+10% FCS was added. At 24 hours medium was changed to 2 ml fresh DME+10% FCS until harvest at 48 hrs.
Cell lines Cos 1 or CHO were transfected with 0.5 μg of pSVLCAT or 2 μg of pPGKlacZ plasmid using a range of concentrations of each transfection compound. The optimal concentration of compound, that is the concentration giving the highest level of CAT at 48 hours or the greatest percentage of lac z (β-galactosidase) staining cells at 24 hours was used to collate data for Table 1. As all compounds were not tested in a single experiment, absolute figures indicating transfection were not used. Rather, symbols are used to indicate the transfection efficiency relative to Lipofectamine (BRL), which was included as a control in all experiments. Table 1 thus indicates the relative efficiencies of a number of compounds in mediating the transfection of at least one cell type.
All test lipopeptide reagents were originally dissolved at 10 mM in 75% DMSO, and subsequently diluted with water to make a 2 mM stock stored at 4° C. Volumes of 2 mM stock lipopeptide ranging from 2 μl to 15 μl were diluted in 500 μl of DDME. 1 μg of plasmid pSVLCAT was separately diluted in 500 μl of DDME. Solutions were combined for 10-20 min at room temperature before adding to 500 μl of DDME in 60 mm dishes of subconfluent CHO cells (2×10^5 day-1) or Cos 1 cells (5×10^5 day-1); washed free of serum with DDME.
Cells were incubated for 6 hrs under standard conditions of 37° C. and 5% CO2 for 6 hours. 1.5 ml of DME/Hams+10% FCS (CHO) or DME+10% FCS (Cos 1) was added to the cells for overnight incubation. Fresh DME/Hams+10% FCS or DME+10% FCS was used to replace the medium for a further 24 hours prior to harvest. Cell lysates were prepared and assayed for CAT activity as described above. For Cos 1 cells, culture supernatants were assayed for CAT activity.
For transfection of pSVLCAT and subsequent assay of CAT enzyme, experiments "a" and "b" were carried out as described above.

[3] = system: Cos 1 cells; assay type: cell-based, African Green Monkey; remark: listed apart in the source
Method: Relative levels of cytotoxicity were also assayed in subsequent experiments using the dye MTS, marketed as Cell titre 96 Aqueous (Promega).
as §2, §3

[4] = system: Cos 1 cells; assay: β-gal microtitre plate transfection assay, Cos 1; assay type: cell-based, African Green Monkey; settings: for units β-gal: Table 2, Cos 1, highest reading of 72 conditions; for relative transfection level (A linker compound as reference): "y" linker experiment c, Cos 1, trilysine trilaurate
From the text: as §1
Compounds were tested for their ability to transfect either the CAT or β-gal gene carried on plasmids, and assayed as described above.
as §2
Each of these compounds was tested for transfection ability and cytotoxicity on standard cell lines using standard conditions as described above.
as §3

[5] = system: cells; assay: β-gal reporter transfection, "y" linker non-standard amino acids; assay type: cell-based; settings: K3 "y" TL3 compounds
Method: Peptide/fatty acyl conjugates were synthesized using the non-standard amino acids amino butyric (C3), amino caproic (C5) and amino caprylic (C7) acids as the linker groups, a tri-lysine nucleic acid binding domain and laurate for the three fatty acyl groups. In these new conjugates the DNA binding and tris/fatty acyl moieties were separated by an extra 3, 5 and 7 carbon bond lengths respectively when compared with the prototype molecule. These compounds were then tested in the standard manner described above to determine their relative capacity to transfect cells.
K3 "y" TL3 compounds, where y=C3, C5, C7, A, L, G were compared for transfection efficiency to each other and the commercial agent Lipofectamine using the standard β-gal reporter gene system described above.

[6] = system: Cos 1 cells; assay: Cellular uptake and distribution of fluorescein conjugates (confocal microscopy); assay type: cell-based, African Green Monkey; settings: for cell staining after treatment: cells fixed fifteen minutes after treatment; for persistence of staining: conjugate washed off after 2 hours, cells grown 24 hours; for distribution in live, unfixed cells: 40× objective
Method: In order to assess the ability to deliver compounds into cells, preliminary experiments were conducted with fluorescein alanine ethanolamine palmitate (FLAEP) and fluorescein alanine tris tripalmitate (FLATP3).
After the incubation period as specified in the experiment, up to 24 hours exposure, the cells were washed and fixed in formaldehyde for 20 minutes. Cells were then observed under laser excitation in a Bio Rad MRC 500 confocal microscope.

CCCCCCCCCCCCCCCC(=O)OCC(CO)(COC(=O)CCCCCCCCCCCCCCC)NC(=O)[C@H](Cc1ccccc1)NC(=O)[C@H](CCCCN)NC(=O)[C@@H](N)CCCCN [K2FTP2]
toxicity, linkers K, F and L compared [1]: somewhat higher than for the K compound

CCCCCCCCCCCCCCCC(=O)OCC(COC(=O)CCCCCCCCCCCCCCC)(COC(=O)CCCCCCCCCCCCCCC)NC(=O)[C@H](CCCCN)NC(=O)[C@H](CCCCN)NC(=O)[C@@H](N)CCCCN [K2KTP3]
cytotoxicity, dipalmitate versus tripalmitate [1]: increase in cytotoxicity

CCCCCCCCCCCCCCCC(=O)OCC(CO)(COC(=O)CCCCCCCCCCCCCCC)NC(=O)[C@H](CC(C)C)NC(=O)[C@H](CCCCN)NC(=O)[C@@H](N)CCCCN [K2LTP2]
toxicity, linkers K, F and L compared [1]: somewhat higher than for the K compound
transfection, linkers K, F and L compared ([2]; "y" linker experiment a, Cos 1, dilysine dipalmitate): marginally superior results to F, but was substantially more effective than the K compound
transfection, linkers A and L compared ([2]; "y" linker experiment b, Cos 1): very similar activities

CCCCCCCCCCCCCC(=O)OCC(CO)(COC(=O)CCCCCCCCCCCCC)NC(=O)[C@H](C)NC(=O)[C@H](CCCCN)NC(=O)[C@H](CCCCN)NC(=O)[C@@H](N)CCCCN [K3ATM2]
MTS OD490-655 [3]: 1.56
Viability (Cos 1) [3]: 1.56
ratio [lipid]/[DNA] at which maximum was achieved ([4]; Table 2, Cos 1): 0.35
units β-gal [4]: 3.46 × 10^-5 units
ratio [lipid]/[DNA] at which maximum was achieved ([4]; Table 3, Cos 1): .35
β-gal (Cos 1) ([4]; Table 3, Cos 1, highest reading of 72 conditions): 3.46 × 10^-5

CCCCCCCCCCCCCC(=O)OCC(COC(=O)CCCCCCCCCCCCC)(COC(=O)CCCCCCCCCCCCC)NC(=O)[C@H](C)NC(=O)[C@H](CCCCN)NC(=O)[C@H](CCCCN)NC(=O)[C@@H](N)CCCCN [K3ATM3]
MTS OD490-655 [3]: 1.22
Viability (Cos 1) [3]: 1.22
ratio [lipid]/[DNA] at which maximum was achieved ([4]; Table 2, Cos 1): 1.39
units β-gal [4]: 2.86 × 10^-4 units
ratio [lipid]/[DNA] at which maximum was achieved ([4]; Table 3, Cos 1): 1.39
β-gal (Cos 1) ([4]; Table 3, Cos 1, # tested in a separate experiment): 2.86 × 10^-4

CCCCCCCCCCCC(=O)OCC(COC(=O)CCCCCCCCCCC)(COC(=O)CCCCCCCCCCC)NC(=O)CCCNC(=O)[C@H](CCCCN)NC(=O)[C@H](CCCCN)NC(=O)[C@@H](N)CCCCN [K3C3TL3]
transfection efficiency compared to Lipofectamine [5]: more efficient at transfection than Lipofectamine
transfection efficiency compared to standard single amino acid linker [5]: dramatically more efficient than compounds using the standard single amino acid linker

CCCCCCCCCCCC(=O)OCC(COC(=O)CCCCCCCCCCC)(COC(=O)CCCCCCCCCCC)NC(=O)CCCCCNC(=O)[C@H](CCCCN)NC(=O)[C@H](CCCCN)NC(=O)[C@@H](N)CCCCN [K3C5TL3]
transfection efficiency compared to Lipofectamine [5]: more efficient at transfection than Lipofectamine
transfection efficiency compared to standard single amino acid linker [5]: dramatically more efficient than compounds using the standard single amino acid linker

CCCCCCCCCCCC(=O)OCC(COC(=O)CCCCCCCCCCC)(COC(=O)CCCCCCCCCCC)NC(=O)CNC(=O)[C@H](CCCCN)NC(=O)[C@H](CCCCN)NC(=O)[C@@H](N)CCCCN [K3GTL3] (H-KKKG-{NHC(CH2OLauroyl)3})
transfection efficiency compared to Lipofectamine [5]: All of the compounds except K3GTL3 were found to be more efficient at transfection than Lipofectamine
relative transfection level (A linker compound as reference) [4]: 12%

CCCCCCCCCCCC(=O)OCC(COC(=O)CCCCCCCCCCC)(COC(=O)CCCCCCCCCCC)NC(=O)[C@H](CC(C)C)NC(=O)[C@H](CCCCN)NC(=O)[C@H](CCCCN)NC(=O)[C@@H](N)CCCCN [K3LTL3] (H-KKKL-{NHC(CH2OLauroyl)3})
transfection efficiency compared to Lipofectamine [5]: more efficient at transfection than Lipofectamine
relative transfection level (A linker compound as reference) [4]: 57%

O=C1OC2(c3ccc(O)cc3Oc3cc(O)ccc32)c2ccccc21 [fluorescein, reference compound]
cell staining after treatment ([6]; 10 μM): only a very weak generalised fluorescence over the whole cell

fluorescein alanine Tris tripalmitate [FLATP3]
cell staining after treatment ([6]; 10 μM): intense cytoplasmic staining
localisation of conjugate ([6]; 10 μM, fixed cells): appeared to associate preferentially with the cellular and nuclear membranes
persistence of staining [6]: a pattern that persisted in cells allowed to grow for 24 hours
distribution in live, unfixed cells [6]: exhibited a similar pattern whether the cells were live or fixed

fluorescein alanine ethanolamine palmitate [FLAEP]
cell staining after treatment ([6]; 10 μM): intense cytoplasmic staining
persistence of staining [6]: This same persistence of staining was not observed
distribution in live, unfixed cells [6]: appeared to enter the cell readily, but was concentrated particularly in the nucleus
